Target: NS3 (Hepatitis C virus, UniProt A3EZJ3)
Experiment: Inhibition of Hepatitis C virus NS3 serine protease
Design: species or system Hepacivirus hominis

NS3, sequence (A3EZJ3 whole entry): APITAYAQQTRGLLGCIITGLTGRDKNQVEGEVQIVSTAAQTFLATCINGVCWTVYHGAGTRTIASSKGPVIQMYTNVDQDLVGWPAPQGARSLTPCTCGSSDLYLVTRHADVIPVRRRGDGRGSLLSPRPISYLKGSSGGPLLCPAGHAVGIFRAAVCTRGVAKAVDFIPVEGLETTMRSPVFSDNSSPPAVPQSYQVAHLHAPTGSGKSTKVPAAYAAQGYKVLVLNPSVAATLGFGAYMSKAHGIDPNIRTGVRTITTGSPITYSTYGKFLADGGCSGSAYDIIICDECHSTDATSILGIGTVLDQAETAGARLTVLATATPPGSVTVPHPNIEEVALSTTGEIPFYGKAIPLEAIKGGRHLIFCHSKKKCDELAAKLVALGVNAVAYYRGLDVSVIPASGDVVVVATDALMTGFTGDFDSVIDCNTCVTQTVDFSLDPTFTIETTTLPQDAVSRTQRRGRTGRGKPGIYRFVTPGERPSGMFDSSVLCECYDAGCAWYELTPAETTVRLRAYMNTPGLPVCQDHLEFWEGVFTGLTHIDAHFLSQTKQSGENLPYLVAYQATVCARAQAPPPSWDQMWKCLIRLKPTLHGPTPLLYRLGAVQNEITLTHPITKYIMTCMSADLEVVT

Structure (SMILES): C=CCNC(=O)C(=O)C(CCC)NC(=O)[C@@H]1CN(CC(=O)OCC)C(=O)N1C(=O)[C@@H](NC(=O)OC(C)(C)C)C(C)C (stereo partly specified)
- Ki: 150 µM

Structure (SMILES): C=CCNC(=O)C(=O)[C@H](CCC)NC(=O)[C@@H]1CN(Cc2ccccc2)C(=O)N1C(=O)[C@@H](NC(=O)[C@@H](NC(=O)[C@H](CCC(=O)OC(C)(C)C)NC(=O)[C@H](CCC(=O)OC(C)(C)C)NC(C)=O)C(C)C)C(C)C
- Ki: 61 µM

Structure (SMILES): C=CCNC(=O)C(=O)[C@H](CCC)NC(=O)[C@@H]1CN(Cc2ccccc2)C(=O)N1C(=O)[C@@H](NC(=O)[C@@H](NC(=O)[C@H](CCC(=O)O)NC(=O)[C@H](CCC(=O)O)NC(C)=O)C(C)C)C(C)C
- Ki: 1 µM

Structure (SMILES): C=CCOC(=O)CNC(=O)C(=O)[C@H](CCC)NC(=O)[C@@H]1CN(Cc2ccccc2)C(=O)N1C(=O)[C@@H](NC(=O)[C@@H](NC(=O)[C@H](CCC(=O)O)NC(=O)[C@H](CCC(=O)O)NC(C)=O)C(C)C)C(C)C
- Ki: 1 µM

Structure (SMILES): C=CCOC(=O)CNC(=O)C(=O)[C@H](CCC)NC(=O)[C@@H]1CN(Cc2ccc(Cl)c(Cl)c2)C(=O)N1C(=O)[C@@H](NC(=O)[C@@H](NC(=O)[C@H](CCC(=O)O)NC(=O)[C@H](CCC(=O)O)NC(C)=O)C(C)C)C(C)C
- Ki: 0.31 µM

Structure (SMILES): C=CCNC(=O)C(=O)[C@H](CCC)NC(=O)[C@@H]1CN(CC(=O)OCC)C(=O)N1C(=O)[C@@H](NC(=O)[C@@H](NC(=O)[C@H](CCC(=O)O)NC(=O)[C@H](CCC(=O)O)NC(C)=O)C(C)C)C(C)C
- Ki: 4 µM

Structure (SMILES): C=CCNC(=O)C(=O)[C@H](CCC)NC(=O)[C@@H]1CNC(=O)N1C(=O)[C@@H](NC(=O)[C@@H](NC(=O)[C@H](CCC(=O)OC(C)(C)C)NC(=O)[C@H](CCC(=O)OC(C)(C)C)NC(C)=O)C(C)C)C(C)C
- Ki: 69 µM

Structure (SMILES): C=CCNC(=O)C(=O)[C@H](CCC)NC(=O)[C@@H]1CNC(=O)N1C(=O)[C@@H](NC(=O)[C@@H](NC(=O)[C@H](CCC(=O)O)NC(=O)[C@H](CCC(=O)O)NC(C)=O)C(C)C)C(C)C
- Ki: 46 µM

Structure (SMILES): C=CCNC(=O)C(=O)[C@H](CCC)NC(=O)[C@@H]1CN(CC(=O)OCC)C(=O)N1C(=O)[C@@H](NC(=O)[C@@H](NC(=O)[C@H](CCC(=O)OC(C)(C)C)NC(=O)[C@H](CCC(=O)OC(C)(C)C)NC(C)=O)C(C)C)C(C)C
- Ki: 30 µM

Structure (SMILES): C=CCOC(=O)CNC(=O)C(=O)C(CCC)NC(=O)[C@@H]1CN(Cc2ccccc2)C(=O)N1C(=O)[C@@H](NC(=O)[C@@H](NC(=O)[C@H](CCC(=O)OC(C)(C)C)NC(=O)[C@H](CCC(=O)OC(C)(C)C)NC(C)=O)C(C)C)C(C)C (stereo partly specified)
- Ki: > 100 µM

Structure (SMILES): C=CCOC(=O)CNC(=O)C(=O)C(CCC)NC(=O)[C@@H]1CN(Cc2ccc(Cl)c(Cl)c2)C(=O)N1C(=O)[C@@H](NC(=O)[C@@H](NC(=O)[C@H](CCC(=O)OC(C)(C)C)NC(=O)[C@H](CCC(=O)OC(C)(C)C)NC(C)=O)C(C)C)C(C)C (stereo partly specified)
- Ki: > 100 µM
